One test relates to Notch signaling. Kind of test: Luciferase reporter assay MCF7-GFP-Rbp/Jk(luc). It is filed as cell-based, Human. The following applies: 50 μM, 2 and 5 days. The source says:
(§1) Mitochondrial fusion and fission may also have an impact in signaling pathways that regulate stem cell proliferation and survival. […] A range of reporter MCF7-GFP cell lines were generated, including MCF7-GFP-GLI(luc), MCF7-GFP-Rbp/Jk(luc), MCF7-GFP-SMAD(luc) and MCF7-GFP-TCF/LEF(luc), to assess Hedgehog signaling, Notch signaling, TGFβ signaling, and Wnt signaling, respectively. […] The data is shown in the four data plots in FIG. 9.
(§2) LUCIFERASE ASSAY: The Cignal Lenti reporter assay (luc) was used to monitor the activity of several signalling pathways in MCF7-GFP cells as explained previously. Luciferase Assay System (E1501, Promega) was performed according to manufacturer's instructions. 1×10^4 MCF7 […] were seeded in black-walled 96 well plates. When cells were attached, drug treatments were added for 18, 48 hours and 5 days. After treatment, Luciferase Assay was performed according to manufacturer's instructions and light signal was acquired in the Xenogen VivoVision IVIS Lumina. Results were normalized by SRB staining of cells grown in 96-well plates in parallel.
(§3) SULFORHODAMINE B (SRB) ASSAY: SRB (S9012, Sigma) measures total biomass by staining cellular proteins. […] Absorbance was spectrophotometrically measured at 562 nm in a FluoStar Omega plate reader (BMG Labtech). […]
In general terms: A reporter such as luciferase makes a cellular process visible.

For the next test, the system named is TGFβ signaling. Briefly: Luciferase reporter assay MCF7-GFP-SMAD(luc). It is filed as cell-based, Human. To be noted: 50 μM, 2 and 5 days.
Excerpt: as §1, §2, §3

Another test concerns Hedgehog signaling. Kind of test: Luciferase reporter assay MCF7-GFP-GLI(luc). It is filed as cell-based, Human. To be noted: 50 μM, 2 and 5 days.
Excerpt: as §1, §2, §3

The test system of test [1] is MCF7 cells. Briefly: Mitochondrial mass quantification by flow cytometry (MitoTracker Deep Red). It counts as cell-based, Human. To be noted: 50 μM, 5 days, relative to vehicle. The source says:
In order to assess whether the inhibition of DRP1 was actually being translated into a reduction in mitochondrial fission, the inventors stained the mitochondria of MCF7 cells with Mitotracker Deep Red, which is a marker of mitochondrial mass. […] The original images are black background with shades of red over the cells, whereas the images in FIG. 3 have been color-inverted and generated in grey scale. Mitochondrial mass was also quantified by flow cytometry. FIGS. 4A-4C show results of mitochondrial mass quantification. In FIG. 4A, Mitotracker Deep Red mean intensity relative to vehicle intensity is shown for 2-day and 5-day treatments.
MITOCHONDRIAL MASS QUANTIFICATION: To measure mitochondrial mass, cells were stained with MitoTracker Deep Red (M22426, Invitrogen). Briefly, 2×10^5 […] cells per well were seeded in 6-well plates. […] Cells were then incubated for 15 min at 37° C. with the 10 nM Mitotracker Deep Red probe diluted in PBS (D8662, Sigma). All subsequent steps were performed in the dark. Cells were washed in PBS, harvested, and resuspended in PBS. Mitotracker signal was quantified as mean fluorescent intensity of the viable cell population in a Fortessa flow cytometer (BD Bioscience). Results were analyzed using FlowJo software.

For the next test, the system named is A549 lung cancer cells. Briefly: Tumorsphere formation assay, A549. It counts as cell-based. The protocol:
(§4) One of the gold standard techniques for the study and identification of CSCs is the sphere formation assay, an in vitro culture system that enriches for CSCs. Under these anchorage-independent culture conditions, CSCs preferentially form the so-called tumorspheres, whereas more differentiated cells die rapidly.
(§5) TUMORSPHERE FORMATION ASSAY: A single cell suspension was prepared using enzymatic (1× Trypsin-EDTA, T3924, Sigma Aldrich), and manual disaggregation (25 gauge needle). […] After 5 days of culture in a humidified incubator at 37° C., tumorspheres bigger than 50 μm were counted using an eye piece graticule.

Test [2] deals with MCF7 cells. Kind of test: Extracellular flux analysis (ECAR and OCR, XF96). It is filed as cell-based, Human. The protocol:
Inhibition of mitochondrial fission by m-DIVI-1 or a derivative thereof also blocks the normal functioning of mitochondrial metabolism in CSCs. Indeed, it has been shown that a DRP1 mutant that inhibits mitochondrial fission increases glucose uptake and lactate production, and decreases ATP production. […] The extracellular acidification rate (ECAR) and the oxygen consumption rate (OCR) were measured using an XF96 Extracellular Flux Analyser, and FIGS. 5A, 5B, and 6A-6C show the data. Basal glycolysis, glycolytic capacity and glycolytic reserve were calculated after addition of glucose, oligomycin and 2-deoxyglucose (2DG) into the media. […] Thus, to measure basal respiration, ATP production, maximal respiration and spare respiratory capacity, oxygen consumption was also calculated after addition of oligomycin, FCCP and antimycin/rotenone into glucose-containing media. […] The OCR versus ECAR graph was also plotted to have an indication of the metabolic state of the cell. […] Thus, mDIVI-1-induced inhibition of mitochondrial fission functionally targets oxidative phosphorylation and also the glycolytic function of MCF7 cells, transforming them into cells with lower mitochondrial energetic needs.
EXTRACELLULAR FLUX […] AND BRADFORD ASSAY: Extracellular acidification rate (ECAR) and oxygen consumption rate (OCR) were measured in a XF96 Extracellular Flux Analyzer (Seahorse Biosciences). Briefly, 1×10^4 MCF7 cells per well were seeded in XF96 plates and incubated with complete medium. When cells were attached, mDIVI-1 and vehicle treatments were added. Six replicates were run for each condition. After 48 hours, un-buffered DMEM XF medium supplemented with 2 mM glutamine (pH 7.4) was added to the cells, and placed in a 37° C. CO2-free incubator for 1 hour. Ten mM glucose, 1 μM oligomycin and 100 mM 2-deoxyglucose (2-DG) were injected into the media at different time points and ECAR was measured. Likewise, ECAR and OCR were quantified using un-buffered DMEM XF medium supplemented with 2 mM glutamine, 2 mM sodium pyruvate and 10 mM glucose. One μM oligomycin, 0.9 μM FCCP and 1 μM rotenone and antimycin A were injected into the media at different time points and OCR and ECAR were measured. Cells were finally lysed with 0.1 M NaOH and protein lysate was subsequently stained with Quick Start™ Bradford 1× Dye Reagent (500-0205, BioRad) to normalise results. All parameters were calculated according to manufacturer.

For a further test, the system named is MCF7 breast cancer cells. Briefly: Tumorsphere formation assay, MCF7. It is filed as cell-based, Human. To be noted: five days, vs vehicle. The protocol: as §4, §5

Consider `COc1cc(-n2c(S)nc3ccccc3c2=O)c(Cl)cc1Cl` [mDIVI-1, 3-(2,4-Dichloro-5-methoxyphenyl)-2-sulfanyl-4(3H)-quinazolinone], for which the “Notch/Rbp pathway luciferase activity” value in the test on Notch signaling is “inhibition”. Further, the “TGFβ/SMAD pathway luciferase activity” value with TGFβ signaling is given as “inhibition”. Moreover, in the test with Hedgehog signaling, the “Hedgehog/GLI pathway luciferase activity” value is “inhibition”. Moreover, the “Mitotracker Deep Red mean fluorescence intensity (mitochondrial mass)” value in the test on MCF7 cells [1] is listed as “significantly higher”. Also, in the test with A549 lung cancer cells (A549, 10 μM), the “decrease of tumorsphere forming capacity” value was above 15%. Also, in the test on A549 lung cancer cells (A549, 50 μM), the “decrease of tumorsphere forming capacity” value was above 80%. Further, in the test on MCF7 cells [2] (48 hours), the “basal glycolysis (ECAR)” value is “did not have a significant effect”, the “glycolytic capacity (ECAR)” value is recorded as “reduced”, the “glycolytic reserve (ECAR)” value is “reduced” and the “oxygen consumption linked to ATP production” value was “significantly reduced”. The “oxygen consumption linked to basal respiration” value in the test on MCF7 cells [2] (48 hours) is reported as “significantly reduced”. Also, in the test with MCF7 cells [2] (48 hours, all mDIVI-1 concentrations), the spare respiratory capacity result is “slightly increased”. The “oxygen consumption linked to maximal respiration” value with MCF7 cells [2] (48 hours, to a lesser extent, at higher concentrations) is “significantly reduced”. Besides, the OCR/ECAR ratio result in the test with MCF7 cells [2] (compared to vehicle) is “decreased dose-dependently”. Further, in the test with MCF7 breast cancer cells (MCF7, 10 μM), the “decrease of tumorsphere number” value was 50%. Also, in the test with MCF7 breast cancer cells (MCF7, 50 μM), the “decrease of tumorsphere number” value was determined as 80%. In addition, in the test on MCF7 breast cancer cells (MCF7, 100 μM), the “decrease of tumorsphere number” value amounted to 95%.
